According to EP0423240B1, “MODULATION OF VIRUS-HOST CELL INTERACTIONS USING CYCLIC OLIGOSACCHARIDES” (THE TRUSTEES OF THE UNIVERSITY OF PENNSYLVANIA, priority 1988, dated 1990):

Key:
HIV-1 [1] = assay: Viral RNA analysis by dot blot; format: cell-based; details: 1 mM
Method: Virus particles were incubated with target cells in the presence or absence of […] of β-CD-14S. At 72 hours post infection, the cells were washed and dot blot assays were performed to determine the presence or absence of viral RNA production. In (A), target cells were infected in the presence of sulfated β-cyclodextrin (lane A), in the absence of cyclodextrins (lane B), or in the presence of unsubstituted β-cyclodextrin (lane C). 1/2 dilutions of cells are from left to right starting with 10⁶ cell/well utilized. In (B), virally infected cells (+) or uninfected cells (-) were assayed for their ability to produce viral RNA by dot blot analysis. CD = infected cells incubated with 1 mM of β-CD-14S. 1/2 dilutions of cells are from top to bottom starting with 10⁶ cell/well.
Virus treated cells were grown in tissue culture and harvested for assay at 72 hrs. post-infection. The cell concentrations were then adjusted to 1 x 10⁶ cells/m1 with phosphate buffered saline and spotted directly onto prewetted gene screen utilizing a dot blot apparatus. The filter was then fixed in 3% NaC1, 10 mM NaH₂PO₄, (pH 7.2) containing 1% gluteraldehyde at 4°C for 1 hr. The fixed blot was then rinsed three times with proteolytic buffer (50mM EDTA, 0.1 M Tris-HC1 (pH 8.0), 20 µg/ml proteinase K) for 30 minutes at 37°C. The filter was air dried until being probed. A Sall-Xho1 probe derived from the pIIIenv1 plasmid (a generous gift of Dr. J. Sodrofsky) and encoding the envelope region of the HXB2, HIV-1 virus was labeled by the random primer method using standard technology and hybridized to the filter as previously described (Weiner et al., 1986, Cell Immunol. 100:197).
To determine if the cyclodextrins were interfering with steps relevant to viral replication, the ability of these compounds to inhibit viral nucleic acid synthesis was determined. Virus particles were incubated with target cells in the presence or absence of 1 mM of β-CD-14S. At 72 hours post-infection, the cells were washed and dot blot assays were performed to determine the presence or absence of viral RNA production. […]

[2] = system: HTLV-IIIb cell free virus; assay: Reverse transcriptase assay of HIV infectivity, cell free virus on target cells, 10 day incubation; format: cell-based, HIV-1
Method: Figure 2 illustrates the effects of cyclodextrin and cyclodextrin derivatives on HIV infectivity as determined by reverse transcriptase activity. Samples assayed are (A) untreated control cells, (B) β-cyclodextrin unsubstituted ring, (C) partially sulfated β-cyclodextrin ring, (D) propylated β-cyclodextrin ring, (E) sulfated β-cyclodextrin ring, and (F) methylated β-cyclodextrin ring. Numbers indicate 1/2 dilutions of test compounds with 1 = 2.5 mM concentration of compound.
(§1) Virus infected cells were pelleted by centrifugation and 50 µl of culture suprenatant was collected from each well for assay. Culture supernatant (25 µl) was plated in 96 well round bottomed plates and 50 µl of transcriptase cocktail was added to each well. Cocktail is 50 mM Tris-HC1, pH 8.0, 20 mM DTT, 0.6 mM MnC1₂, 60 mM NaC1, 0.05% NP-40, 5 µg/ml dt (oligodeoxythymidilic acid), 10 µg/ml poly A (polyriboadenylic acid), 10 µM dTTP, 1 Ci/mm ³²P dTTP. Plates were then incubated for 60 minutes at 37°C. After incubation samples were spotted onto Whatman DEAE-81 paper, washed and analyzed by counting or direct autoradiography.
The ability of cyclodextrins to inhibit HIV infection was assessed in vitro utilizing reverse transcriptase assays as described Section 6.1.2, supra. HTLV-IIIb cell free virus stocks were inoculated onto target cells in the presence or absence of the synthetic compounds.

HIV-1 [3] = assay: HIV-induced syncytia formation over time, comparison with dextran sulfates; format: cell-based; details: during the culture period (48 hours)
Method: (§2) Figure 6 compares the effects of dextran polysulfate and substituted β-cyclodextrins on HIV infectivity. In (A) degree of syncytia inhibition is shown on the ordinate for each compound added. SUL = 600 µM β-CD-14S, AL = 600 µM unsubstituted β-CD, Pro = 600 µM propoxylated β-CD, 2MET = 300 µM methoxylated β-CD, DS5 = 600 µM dextran sulfate 5,000, DS500 = 600 µM dextran sulfate 500,000. Results for each of 3 time points are shown. In (B) similar results utilizing reverse transcriptase assays are shown. Infectious virus particles were incubated in the presence of sulfated β-cyclodextrin (lane 1), dextran sulfate 5000 (lane 2) or media (lane 3) for 6 days at which time cells were resuspended in fresh media and allowed to incubate a further 10 days before being harvested. Reverse transcriptase activity was assayed as described in Section 6.1, infra. 1/2 dilutions of the compound added are shown from bottom (highest concentration at 2.5 mM) to top (lowest concentration).
For the assay of HIV-1 fusion, Supt T1 cells were used as target cells. They fuse rapidly when cocultured with HIV-1 (H9/IIIb) producing cell lines. For the assay of HIV-2 mediated cell fusion, H9 cells were used as target cells. […] Target cells are then added 5 x 10⁵/well and the number of syncytia are qualitatively determined after the incubation periods described in the text.

HIV-1 [4] = assay: Reverse transcriptase levels of cells already infected with HIV-1; format: cell-based; details: reverse transcriptase activity, virus particle production, virus particle morphology
Method: as §1
In order to determine the specific sites of viral pathogenesis interrupted by the cyclodextrin compounds, we assayed the ability of the cyclodextrins treatment to effect reverse transcriptase levels of cells already infected with HIV-1. In contrast to the results observed when virus was added to uninfected cells, (see supra, Section 6.2.1.) no significant inhibition of reverse transcriptase was observed.

HIV = assay: Reverse transcriptase assay after prolonged culture (6 days with compound, further 10 days in fresh media); format: cell-based; details: then 10 days in fresh media
Method: as §2
Virus infected cells were pelleted by centrifugation and 50 µl of culture suprenatant was collected from each well for assay. Culture supernatant (25 µl) was plated in 96 well round bottomed plates and 50 µl of transcriptase cocktail was added to each well. […] After incubation samples were spotted onto Whatman DEAE-81 paper, washed and analyzed by counting or direct autoradiography. […]

With “beta-cyclodextrin tetradecasulfate [Beta-CD-14S]” the “ability of infected cells to produce viral RNA” value (HIV-1 [1]; already infected cells incubated with compound) was “not inhibited in their ability to produce viral RNA”, the “HIV-1 specific RNA” value (HIV-1 [1]; target cells infected in the presence of compound, 72 hours post-infection) was “little or no HIV-1 specific RNA was detected” and the “inhibition of viral infectivity (reverse transcriptase activity)” value ([2]; 1/2 dilutions from 2.5 mM, result in words) was “extremely effective”. For the same substance, the “concentrations at which some reverse transcriptase activity was apparent” value ([2]; dilution 4) was at most 320 µM, the “concentrations at which reverse transcriptase activity was dramatically inhibited” value ([2]; dilution 6) was at least 80 µM and the anti-syncytial activity (HIV-1 [3]) was “remained unchanged”. The “effects on cells that have already been infected with HIV-1” value (HIV-1 [4]) was “no detectable effects” and the “anti-viral activity (reverse transcriptase activity)” value (HIV) was “significant anti-viral activity even after prolonged periods of tissue culture”.
